Test results from patent publication US11337964B2, “Isoindoline derivative, pharmaceutical composition and use thereof” (Kangpu Biopharmaceuticals, Ltd., priority 2017, dated 2022).
Like-named read-outs stand apart in the source and are kept apart here.

What was measured:
PDE4A1A = molecular target: T1, PDE4A1A (Homo sapiens, UniProt P27815); test: PDE4 activity inhibition assay, PDE4A1A; assay type: biochemical; details: FAM-cAMP substrate, 30 minutes at room temperature
T1 construct: purchased BPS 60040
T1 sequence (P27815 1-647 isoform P27815-4): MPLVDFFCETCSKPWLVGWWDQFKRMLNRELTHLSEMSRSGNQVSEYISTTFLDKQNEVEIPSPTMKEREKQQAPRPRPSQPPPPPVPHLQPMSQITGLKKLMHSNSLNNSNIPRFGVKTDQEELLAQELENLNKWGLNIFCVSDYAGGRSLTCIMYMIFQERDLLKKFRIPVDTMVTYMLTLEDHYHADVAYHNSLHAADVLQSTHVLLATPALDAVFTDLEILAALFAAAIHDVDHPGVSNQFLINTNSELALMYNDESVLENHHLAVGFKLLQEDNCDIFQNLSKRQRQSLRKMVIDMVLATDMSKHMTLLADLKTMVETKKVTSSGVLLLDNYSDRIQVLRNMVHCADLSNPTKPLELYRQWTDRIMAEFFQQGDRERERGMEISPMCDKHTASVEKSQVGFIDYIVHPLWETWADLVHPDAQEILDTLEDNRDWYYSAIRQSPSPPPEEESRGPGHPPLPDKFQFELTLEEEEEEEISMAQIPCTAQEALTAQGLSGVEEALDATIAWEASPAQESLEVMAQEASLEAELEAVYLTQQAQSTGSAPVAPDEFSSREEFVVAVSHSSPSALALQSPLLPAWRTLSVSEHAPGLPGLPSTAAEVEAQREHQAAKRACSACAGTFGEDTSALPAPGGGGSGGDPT
Procedure: (§1) The IC50 value of the inhibitory effect of the compound on PDE4A1A, PDE4B1 and PDE4D3 was tested.
(§2) Positive compound: Trequinsin (Sigma, Cat. No. T2057).
(§3) Equipment: Wallac Victor Multi-label counter (Perkin Elmer).
(§4) I. Preparing 1× reaction liquid and termination liquid;
(§5) II. PDE enzymatic reaction; • 1) The PDE was dissolved in 1× reaction solution to form 2× enzyme solution. • 2) FAM-cAMP was dissolved in 1× reaction solution to form 2× substrate solution. • 3) Echo 550 was used to transfer the corresponding volume of the compound in DMSO solution to the reaction plate. • 4) 2× enzyme solution was added into the corresponding well of the reaction plate and incubated with the compound solution at room temperature for 15 minutes. • 5) 2× substrate solution was added into the corresponding well of the reaction plate to initiate the reaction. • 6) Reaction plate was incubated at room temperature for 30 minutes and terminated by adding termination liquid, then incubated at room temperature for 60 minutes.
(§6) The inhibition rate was calculated by Excel; IC50 was calculated by GraphPad Prism.

PDE4B1 = molecular target: T2, PDE4B1 (Homo sapiens, UniProt Q07343); test: PDE4 activity inhibition assay, PDE4B1; assay type: biochemical; details: FAM-cAMP substrate, 30 minutes at room temperature
T2 construct: purchased BPS 60041
T2 sequence (Q07343 whole entry): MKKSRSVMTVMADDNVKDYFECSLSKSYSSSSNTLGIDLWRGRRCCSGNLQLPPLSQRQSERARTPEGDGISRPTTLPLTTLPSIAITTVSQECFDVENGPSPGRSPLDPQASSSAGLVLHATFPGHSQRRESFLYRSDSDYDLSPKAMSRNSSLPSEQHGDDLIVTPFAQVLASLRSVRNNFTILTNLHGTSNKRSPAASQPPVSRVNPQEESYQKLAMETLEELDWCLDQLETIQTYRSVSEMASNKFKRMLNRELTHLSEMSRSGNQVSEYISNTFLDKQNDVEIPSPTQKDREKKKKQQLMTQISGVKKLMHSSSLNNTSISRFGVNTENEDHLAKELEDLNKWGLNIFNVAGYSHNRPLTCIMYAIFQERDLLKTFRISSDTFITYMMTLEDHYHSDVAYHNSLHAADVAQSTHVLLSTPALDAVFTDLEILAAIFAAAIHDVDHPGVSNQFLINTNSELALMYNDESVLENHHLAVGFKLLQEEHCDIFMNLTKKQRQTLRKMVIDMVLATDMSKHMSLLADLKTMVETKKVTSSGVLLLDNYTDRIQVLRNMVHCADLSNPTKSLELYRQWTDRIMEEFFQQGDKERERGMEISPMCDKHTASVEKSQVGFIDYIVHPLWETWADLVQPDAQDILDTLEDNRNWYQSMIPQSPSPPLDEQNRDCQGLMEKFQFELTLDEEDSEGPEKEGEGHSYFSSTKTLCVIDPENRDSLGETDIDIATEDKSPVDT
Procedure: as §1, §2, §3, §4, §5, §6

PDE4D3 = molecular target: T3, PDE4D3 (Homo sapiens, UniProt Q08499); test: PDE4 activity inhibition assay, PDE4D3; assay type: biochemical; details: FAM-cAMP substrate, 30 minutes at room temperature
T3 construct: purchased BPS 60046
T3 sequence (Q08499 1-673 isoform Q08499-2): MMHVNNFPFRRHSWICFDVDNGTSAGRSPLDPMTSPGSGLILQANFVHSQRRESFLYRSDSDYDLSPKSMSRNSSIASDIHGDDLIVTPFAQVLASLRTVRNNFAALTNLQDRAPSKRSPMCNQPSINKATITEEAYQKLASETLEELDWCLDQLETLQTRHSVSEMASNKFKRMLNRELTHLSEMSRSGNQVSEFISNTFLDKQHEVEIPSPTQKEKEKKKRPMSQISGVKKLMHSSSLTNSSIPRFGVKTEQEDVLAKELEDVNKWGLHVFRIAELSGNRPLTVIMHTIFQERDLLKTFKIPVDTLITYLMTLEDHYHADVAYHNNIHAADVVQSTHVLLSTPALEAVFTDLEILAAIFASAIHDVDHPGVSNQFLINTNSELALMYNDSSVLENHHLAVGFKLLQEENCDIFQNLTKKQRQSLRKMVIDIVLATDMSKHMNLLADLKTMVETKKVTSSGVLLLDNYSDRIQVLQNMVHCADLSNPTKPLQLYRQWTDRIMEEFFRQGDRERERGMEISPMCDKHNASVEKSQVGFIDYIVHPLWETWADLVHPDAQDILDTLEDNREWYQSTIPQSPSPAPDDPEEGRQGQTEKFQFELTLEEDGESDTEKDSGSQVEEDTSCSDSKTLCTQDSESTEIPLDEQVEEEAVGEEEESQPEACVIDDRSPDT
Procedure: as §1, §2, §3, §4, §5, §6

[1] = PK parameter test in SD rats; assay type: in vivo, Sprague-Dawley rats; details: male SD rats; for Tmax / AUC / half-life: Sprague-Dawley, rat, plasma; for F: po 10 mg/kg vs iv 3 mg/kg
Procedure: Test compounds were administered intravenously or intragastrically singly to SD rats.
Blood samples were collected at different time points. LC-MS/MS was used to determine the concentration of the test compounds in rat plasma after administration of tested compounds and calculate the relevant PK parameters.
The test compounds are calculated based on free radicals and are converted only by purity.
A suitable amount of the test compound was added 5% DMSO+95% HP-beta-CD (20%) to prepare a solution of 0.6 mg/mL for intravenous administration.
A suitable amount of the test compound was added 5% DMSO+95% HP-beta-CD (20%) to prepare a solution of 1 mg/mL for intragastrical administration.
Male Sprague-Dawley rats were purchased from Shanghai Xipuer-Bikai Laboratory Animal Co., Ltd. There were 3 rats in each group. One group was used as control to collect blank plasma. The other groups were given each test compound by intravenous injection (the dose was 3 mg/kg) or intragastrical administration (the dose was 10 mg/kg). Heparin sodium was used for anticoagulation. Analyze the concentration of the test compound in the blood sample.
Abrosia for 10-14 hours before oral administration of the test compounds and resume feeding 4 hours after oral administration of the test compounds.
The time points of blood sample collection were: intravenous injection: before administration and at 0.083 hour, 0.25 hour, 0.5 hour, 1 hour, 2 hour, 4 hour, 6 hour, 8 hour, 24 hour after administration; oral administration: before administration and at 0.25 hour, 0.5 hour, 1 hour, 2 hour, 4 hour, 6 hour, 8 hour, 24 hour after administration. Blood samples were collected through jugular vein puncture. About 0.25 mL blood was collected for each sample. Heparin sodium was used for anticoagulation and the samples were placed on ice after collection. Blood samples were placed on ice after collection, and plasma was separated by centrifugation (centrifugation condition: 8000 rpm, 6 min, 2-8° C.). The collected plasma was stored at −80° C. before analysis.
50 μL plasma sample was added into a 1.5 mL centrifugal tube, and 250 μL internal standard solution (the same volume of methanol was added to blank sample instead of internal standard) was added to the sample. The sample was mixed in a whirlpool and centrifuged for 5 minutes at 14000 rpm. The supernatant of 200 μL was added to 96-well plate for LC-MS/MS analysis.
The pharmacokinetic parameters of the test compounds were calculated using the non-compartment model of WinNonlin v5.2, a software for pharmacokinetic calculation, based on the data of plasma concentration.

[2] = po, intragastrical administration 10 mg/kg
[3] = po, intragastrical administration 10 mg/kg, read-out: AUC(po)
[4] = po, intragastrical administration 10 mg/kg, read-out: T1/2(po) (converted)
[5] = intravenous injection 3 mg/kg, read-out: AUC(iv)
[6] = intravenous injection 3 mg/kg, read-out: T1/2 (IV) (converted)

[2H]C([2H])([2H])Oc1ccc([C@@H](CS(C)(=O)=O)N2C(=O)c3c(F)ccc(NC(C)=O)c3C2=O)cc1OCC [Compound 103, (S)—N-(2-(1-(3-ethoxy-4-d3-methoxyphenyl)-2-(methylsulfonyl)ethyl)-7-fluoro-1,3-dioxoisoindolin-4-yl)acetamide]
IC50 (PDE4A1A): 7.25 nM | IC50 (PDE4B1): 12.8 nM | IC50 (PDE4D3): 3.7 nM | Tmax [1, 2]: 120 min | AUC [1, 3]: 4120 ng·h/mL | half-life [1, 4]: 230 min | AUC [1, 5]: 1260 ng·h/mL | half-life [1, 6]: 63 min | F [1]: 98.2

[2H]C([2H])([2H])Oc1ccc([C@@H](CS(C)(=O)=O)N2C(=O)c3cc(F)cc(NC(C)=O)c3C2=O)cc1OCC [Compound 203, (S)—N-(2-(l-(3-ethoxy-4-d3-methoxyphenyl)-2-(methylsulfonyl)ethyl)-6-fluoro-1,3-dioxoisoindolin-4-yl)acetamide]
IC50 (PDE4A1A): 22 nM | IC50 (PDE4B1): 31 nM | IC50 (PDE4D3): 18 nM | Tmax [1, 2]: 30 min | AUC [1, 3]: 250 ng·h/mL | half-life [1, 4]: 52.2 min | AUC [1, 5]: 1010 ng·h/mL | half-life [1, 6]: 57 min | F [1]: 7.4

CCOc1nc([C@@H](CS(C)(=O)=O)N2C(=O)c3cccc(NC(C)=O)c3C2=O)ccc1OC [Compound 702, (S)—N-(2-(1-(6-ethoxy-5-methoxypyridin-2-yl)-2-(methylsulfonyl)ethyl)-1,3-dioxoisoindolin-4-yl)acetamide]
IC50 (PDE4A1A): 2.2 nM | IC50 (PDE4B1): 4.7 nM | IC50 (PDE4D3): 4 nM | Tmax [1, 2]: 40.2 min | AUC [1, 3]: 1050 ng·h/mL | half-life [1, 4]: 392 min | AUC [1, 5]: 1330 ng·h/mL | half-life [1, 6]: 22.8 min | F [1]: 15.5

CCOc1nc([C@@H](CS(C)(=O)=O)N2C(=O)c3c(F)ccc(NC(C)=O)c3C2=O)ccc1OC [Compound 705, (S)—N-(2-(1-(6-ethoxy-5-methoxypyridin-2-yl)-2-(methylsulfonyl)ethyl)-7-fluoro-1,3-dioxoisoindolin-4-yl)acetamide]
IC50 (PDE4A1A): 0.58 nM | IC50 (PDE4B1): 1.6 nM | IC50 (PDE4D3): 0.53 nM | Tmax [1, 2]: 30 min | AUC [1, 3]: 3590 ng·h/mL | half-life [1, 4]: 555 min | AUC [1, 5]: 1340 ng·h/mL | half-life [1, 6]: 55.2 min | F [1]: 80.2

CCOc1nc([C@@H](CS(C)(=O)=O)N2C(=O)c3cc(F)cc(NC(C)=O)c3C2=O)ccc1OC [Compound 708, (S)—N-(2-(1-(6-ethoxy-5-methoxypyridin-2-yl)-2-(methylsulfonyl)ethyl)-6-fluoro-1,3-dioxoisoindolin-4-yl)acetamide]
IC50 (PDE4A1A): 3.1 nM | IC50 (PDE4B1): 5.1 nM | IC50 (PDE4D3): 1.6 nM | Tmax [1, 2]: 40.2 min | AUC [1, 3]: 51 ng·h/mL | half-life [1, 4]: 253 min | AUC [1, 5]: 945 ng·h/mL | half-life [1, 6]: 32.4 min | F [1]: 1.62

CCOc1nc(C(CS(C)(=O)=O)N2C(=O)c3c(F)ccc(NC(=O)CC(C)C)c3C2=O)ccc1OC (stereo not drawn) [Compound 757, N-(2-(1-(6-ethoxy-5-methoxypyridin-2-yl)-2-(methylsulfonyl)ethyl)-7-fluoro-1,3-dioxoisoindolin-4-yl)-3-methylbutanamide]
IC50 (PDE4A1A): 2.5 nM | IC50 (PDE4B1): 4.5 nM | IC50 (PDE4D3): 1.8 nM

CCOc1nc(C(CS(C)(=O)=O)N2C(=O)c3cccc(NC(=O)CC(C)C)c3C2=O)ccc1OC (stereo not drawn) [Compound 760, N-(2-(1-(6-ethoxy-5-methoxypyridin-2-yl)-2-(methylsulfonyl)ethyl)-1,3-dioxoisoindolin-4-yl)-3-methylbutanamide]
IC50 (PDE4A1A): 3.1 nM | IC50 (PDE4B1): 4.7 nM | IC50 (PDE4D3): 1.3 nM

CCOc1nc([C@@H](CS(C)(=O)=O)N2C(=O)c3c(F)ccc(NC(=O)C4CC4)c3C2=O)ccc1OC [Compound 764, (S)—N-(2-(1-(6-ethoxy-5-methoxypyridin-2-yl)-2-(methylsulfonyl)ethyl)-7-fluoro-1,3-dioxoisoindolin-4-yl)cyclopropanecarboxamide]
IC50 (PDE4A1A): 1.6 nM | IC50 (PDE4B1): 1.9 nM | IC50 (PDE4D3): 1 nM

[2H]C([2H])([2H])Oc1ccc([C@@H](CS(C)(=O)=O)N2C(=O)c3c(F)ccc(NC(=O)C4CC4)c3C2=O)nc1OCC [Compound 767, (S)—N-(2-(1-(6-ethoxy-5-d3-methoxypyridin-2-yl)-2-(methylsulfonyl)ethyl)-7-fluoro-1,3-dioxoisoindolin-4-yl)cyclopropanecarboxamide]
IC50 (PDE4A1A): 1.3 nM | IC50 (PDE4B1): 2.2 nM | IC50 (PDE4D3): 1 nM

CCOc1nc([C@@H](CS(C)(=O)=O)N2C(=O)c3cccc(NC(=O)C4CC4)c3C2=O)ccc1OC [Compound 770, (S)—N-(2-(1-(6-ethoxy-5-methoxypyridin-2-yl)-2-(methylsulfonyl)ethyl)-1,3-dioxoisoindolin-4-yl)cyclopropanecarboxamide]
IC50 (PDE4A1A): 1.6 nM | IC50 (PDE4B1): 1.8 nM | IC50 (PDE4D3): 1.5 nM

[2H]C([2H])([2H])Oc1ccc([C@@H](CS(C)(=O)=O)N2C(=O)c3cccc(NC(=O)C4CC4)c3C2=O)nc1OCC [Compound 773, (S)—N-(2-(1-(6-ethoxy-5-d3-methoxypyridin-2-yl)-2-(methylsulfonyl)ethyl)-1,3-dioxoisoindolin-4-yl)cyclopropanecarboxamide]
IC50 (PDE4A1A): 1.7 nM | IC50 (PDE4B1): 1.7 nM | IC50 (PDE4D3): 1.2 nM

CCOc1cc(C(CS(C)(=O)=O)N2C(=O)c3cccc(NC(C)=O)c3C2=O)cnc1OC (stereo not drawn) [Compound 801, N-(2-(1-(5-ethoxy-6-methoxypyridin-3-yl)-2-(methylsulfonyl)ethyl)-1,3-dioxoisoindolin-4-yl)acetamide]
IC50 (PDE4A1A): 295 nM | IC50 (PDE4B1): 364 nM | IC50 (PDE4D3): 202 nM

CCOc1cc(C(CS(C)(=O)=O)N2C(=O)c3cccc(NC(C)=O)c3C2=O)ncc1OC (stereo not drawn) [Compound 901, N-(2-(1-(4-ethoxy-5-methoxypyridin-2-yl)-2-(methylsulfonyl)ethyl)-1,3-dioxoisoindolin-4-yl)acetamide]
IC50 (PDE4A1A): 411 nM | IC50 (PDE4B1): 484 nM | IC50 (PDE4D3): 248 nM

CCOc1cc([C@@H](CS(C)(=O)=O)N2C(=O)c3cccc(NC(C)=O)c3C2=O)ccc1OC [Reference compound 2, reference compound]
Tmax [1, 2]: 60 min | AUC [1, 3]: 785 ng·h/mL | half-life [1, 4]: 56.4 min | AUC [1, 5]: 1050 ng·h/mL | half-life [1, 6]: 28.2 min | F [1]: 22.5
